From patent publication EP4681700A1, “GSE24.2-DERIVED PEPTIDE AND USES THEREOF” (Consejo Superior De Investigaciones Científicas - CSIC, priority 2023, dated 2026)

Legend:
HaCaT cells [1] = assay: yH2AX Western blot (DNA damage signalling) in transduced keratinocytes; assay type: cell-based, human; conditions: 6 hours
Excerpt: (§1) RL6TN cells were transduced with lentiviral vectors directing the expression of the different peptides under study (sequences derived from pCCL-hPGK.GSE4.wPREchim, SEQ ID NO. 62, in which the oligonucleotides corresponding to each peptide, shown in Table 4, SEQ ID Nos: 46-60, have been included between restriction sites Sall and Xbal) or of the GFP protein (green fluorescent protein) (PGK-EGFP sequence, SEQ ID NO. 63) as negative control. 600,000 non-transduced (control, CT) cells or cells transduced with the different lentiviral vectors were cultured for 6 hours in the absence (Panel A) or presence of 4 µg/mL of bleomycin (Merck, Burlington, MA. USA) (Panel B). After this culture period, the cells were lysed and the amount of yH2AX was determined by means of Western blot using an yH2AX-specific antibody (Cell Signalling Technology, Danvers, MA, USA). Expression of the β-actin protein as loading control was simultaneously determined using a specific antibody (Santa Cruz Biotechnology, Dallas, TX, USA). Protein expression was quantified using a luminometer. The expression of yH2AX in each sample was calculated based on the amount of β-actin. These relative values were normalised to the value corresponding to control cells not treated with bleomycin.
DNA damage signalling studies were reproduced in human skill keratinocyte cell line HaCaT. This cell line is often used to study skin's response to environmental and pathogenic agents. HaCaT cells were transduced with lentiviral vectors which allow the expression of the P3 peptide, the GSE4 peptide, as a positive control, or GFP as a negative control. 100,000 non-transduced (CT) cells or cells transduced with the various peptides were cultured in the absence (Figure 2A) or presence of 50 µg/mL of bleomycin (Figure 2B) for 6 hours. Subsequently, the cells were lysed and the amount of yH2AX present in the extracts was determined by Western Blot in the same way as indicated for the assays in RL6TN cells described above.

RLE6TN cells [2] = assay: TGFβ-induced expression of TGFβ receptor and MCP1 mRNA (epithelial/mesenchymal transition), quantitative PCR; assay type: cell-based, rat; conditions: 5 ng/mL TGFβ, 48 of culture; for induction of expression of Mcp1 mRNA after incubating the cells with TGFβ: p<0.01 for P3 and GSE4, Figure 4A; for induction of expression of Tgfbr1 mRNA after incubating the cells with TGFβ: p<0.05 for P3, Figure 4A
Excerpt: (§2) The ageing of some tissues is accompanied by fibrotic processes in which fibroblasts and myofibroblasts accumulate and in which epithelial/mesenchymal transition of epithelial cells is induced. This process occurs, for example, in idiopathic pulmonary fibrosis and in fibrosis processes as a result of skin exposure to ionising radiation. Many of these processes are mediated by the secretion of the cytokine TGFβ (transforming growth factorβ). The possible effect of the peptides on these processes was studied by incubating cells with TGFβ (R&D Systems, Bio-Techne, Minneapolis; MN, USA) and studying the expression of two mRNAs induced by this cytokine, i.e., the TGFβ receptor (TGFβR1/2) and the cytokine MCP1 (also referred to as CCL2) by means of reverse transcription of RNA and quantitative PCR.
(§3) Control cells or cells transduced with GFP expression vectors, or the GSE4 and P3 peptides were cultured in the absence or presence of a concentration of 5 ng/mL of the TGFβ factor (identified with the symbol + in Figure 4) to induce epithelial/mesenchymal transition. After 48 of culture, RNA was obtained from the cells and converted into cDNA by means of reverse transcription. The expression levels of the mRNA encoding TGFBR-1/2 (TGFβ-receptor 1 or 2) and MCP1 (monocyte chemoattractant protein-1, also referred to as CCL2: C-C motif chemokine ligand 2) were determined by quantitative PCR. The values obtained were corrected by those corresponding to the control mRNA (GAPDH) and normalised by the expression in control cells (CT).
(§4) In the assays shown in Figures 4A, for RLE6TN cells, oligonucleotides SEQ ID Nos 31 and 32 for TGFBR1, 35 and 36 for MCP1, and 43 and 44 for GAPDH were used in quantitative PCR. To obtain the results shown in Figure 4B, for HaCaT cells, oligonucleotides SEQ ID Nos: 29 and 30 for TGFBR2, SEQ ID Nos: 33 and 34 for MCP1, and SEQ ID Nos: 41y 42 for GAPDH b were used.

HaCaT cells [3] = assay: IL-6 mRNA expression by quantitative PCR in transduced cells; assay type: cell-based, human; conditions: Figure 5B
Method: (§5) Another important component of tissue ageing is the production of pro-inflammatory interleukins that induce the presence of basal inflammation in tissues. This inflammatory situation also occurs in some diseases of premature ageing and in response to environmental aggressions. Interleukin-6 (IL-6) is one of the main pro-inflammatory molecules and, for this reason, the possible effect of the expression of the peptides on the synthesis of this molecule was determined. In these experiments, the expression of the mRNA encoding IL-6 in cells transduced with the expression vectors of the P3 peptide and controls was determined.
(§6) RNA was obtained from RL6TN cells (Figure 5, panel A) or HaCaT cells (Figure 5, panel B) not transduced (CT) or transduced with lentiviral vectors expressing GFP or the GSE4 or P3 peptides. cDNA was synthesised from each RNA by reverse transcription and the amount of mRNA encoding IL-6 was quantified by quantitative PCR as described in Examples 2 and 3 above.
(§7) The obtained results are shown in Figures 5A (RLE6TN cells) and 5B (HaCaT cells). In the assays with RLE6TN cells, oligonucleotides with SEQ ID Nos: 39 and 40 for IL-6 and SEQ ID Nos: 43 and 44 for GAPDH were used for quantitative PCRs. In the assay performed with HaCaT cells, oligonucleotides with SEQ ID Nos: 37 and 38 for IL-6 and SEQ ID Nos: 41 and 42 for GAPDH were used.

RLE6TN cells [4] = assay: as above; assay type: cell-based, rat; conditions: Figure 5A
Method: as §5, §6, §7

[5] = system: rat lung epithelial cells RL6TN; assay: yH2AX Western blot (DNA damage) in cells transduced with lentiviral peptide expression vectors; assay type: cell-based; conditions: 6 hours, relative to β-actin, normalised to CT
Method: In the experiment shown in Figure 1, rat lung epithelial cells RL6TN were transduced with lentiviral vectors directing the expression of the peptides under study and the corresponding controls. The presence of γH2AX was then determined by means of Western blot assays.
as §1

HaCaT cells [6] = assay: TERT and TERC mRNA expression by quantitative PCR in transduced cells; assay type: cell-based, human; conditions: corrected by GAPDH, normalised to CT; for expression of Terc: p<0.001 for P3 only, Figure 3D; for expression of TERT: p<0.01 for both peptides, Figure 3C
Excerpt: (§8) RNA was isolated from control cells or cells transduced with vectors expressing GFP or the GSE4 and P3 peptides. The corresponding cDNAs, which were used to determine the expression levels of the mRNA encoding TERT (Figure 3, panels A and C) and TERC (Figure 3, panels B and D) by means of quantitative PCR, were synthesised from these RNAs. Expression levels were corrected by levels corresponding to the mRNA encoding GAPDH, used as a control. Relative values were normalised with respect to values obtained for non-transduced control cells (CT). Panels A and B show the results obtained for RL6TN cells and panels C and D show the results corresponding to HaCaT cells.
The results obtained for HaCaT cells are depicted in Figures 3C and 3D where oligonucleotides corresponding to SEQ ID Nos: 21, 22 for TERT, SEQ ID Nos: 25, 26 for TERC, and SEQ ID Nos: 41, 42 for GAPDH were used. […] This difference is statistically significant for both peptides in the case of TERT (**, p<0.01, ANOVA test and Dunnett's post-hoc test) and for the P3 peptide in the case of TERC (***, p<0.001, ANOVA test and Dunnett's post-hoc test).

RLE6TN cells [7] = assay: as above; assay type: cell-based, rat; conditions: corrected by GAPDH, normalised to CT; for expression of Tert mRNA: Figure 3A; for expression of Terc: p<0.05, Figure 3B
Excerpt: as §8
For assays performed in RLE6TN cells, shown in Figures 3A and 3B, oligonucleotides corresponding to SEQ ID Nos: 23, 24 for TERT, SEQ ID Nos:27, 28 for TERC, and SEQ ID Nos:43, 44 for GAPDH were used in quantitative PCR assays.

HaCaT cells [8] = assay: TGFβ-induced expression of TGFβ receptor and MCP1 mRNA (epithelial/mesenchymal transition), quantitative PCR; assay type: cell-based, human; conditions: 5 ng/mL TGFβ, 48 of culture; for induction of expression of TGFBR2 mRNA after incubating the cells with TGFβ: Figure 4B; for induction of expression of MCP1 mRNA after incubating the cells with TGFβ: p<0.05 for P3, Figure 4B
Excerpt: as §2, §3, §4

[9] = baseline damage (absence of bleomycin), Figure 2A
[10] = 4 µg/mL of bleomycin, Figure 1B
[11] = culture control conditions (absence of bleomycin), Figure 1A

Q: For “DKPSNPSSHE [P3, GSE24.2-derived peptide of 10 amino acids, expressed in cells from a lentiviral vector]”, which “DNA damage signalling (amount of yH2AX)” value (HaCaT cells [1]; 50 µg/mL of bleomycin, Figure 2B) is on record?
A: reduces DNA damage signalling

Q: What about the “DNA damage signalling (amount of yH2AX)” value (HaCaT cells [1]; [9]) of the same sequence?
A: reduces DNA damage signalling

Q: What about the “induction of expression of Mcp1 mRNA after incubating the cells with TGFβ” value (RLE6TN cells [2]) of the same sequence?
A: decreases the induction of expression of both markers

Q: And the “induction of expression of Tgfbr1 mRNA after incubating the cells with TGFβ” value (RLE6TN cells [2])?
A: decreases the induction of expression of both markers

Q: What about the “expression of IL-6 mRNA” value (HaCaT cells [3]) of the same sequence?
A: decreased the expression of IL-6 mRNA

Q: And the “expression of IL-6 mRNA” value (RLE6TN cells [4])?
A: decreased the expression of IL-6 mRNA

Q: And the “levels of yH2AX” value [5, 10]?
A: causes a decrease in the levels of yH2AX

Q: What about the “levels of yH2AX” value [5, 11] of the same sequence?
A: causes a decrease in the levels of yH2AX

Q: What about the “expression of Terc” value (HaCaT cells [6]) of the same sequence?
A: caused an increase

Q: What about the “expression of TERT” value (HaCaT cells [6]) of the same sequence?
A: caused an increase

Q: What about the “expression of Tert mRNA” value (RLE6TN cells [7]) of the same sequence?
A: an increase was also observed

Q: And the “expression of Terc” value (RLE6TN cells [7])?
A: significant increase

Q: And the “induction of expression of TGFBR2 mRNA after incubating the cells with TGFβ” value (HaCaT cells [8])?
A: decreases the induction of expression of both markers

Q: What about the “induction of expression of MCP1 mRNA after incubating the cells with TGFβ” value (HaCaT cells [8]) of the same sequence?
A: decreases the induction of expression of both markers

Q: For GFINLDKPSNP [GSE4, reference compound], which “DNA damage signalling (amount of yH2AX)” value (HaCaT cells [1]; [9]) is on record?
A: the reduction is greater than that caused by the expression of GSE4

Q: What about the “induction of expression of Mcp1 mRNA after incubating the cells with TGFβ” value (RLE6TN cells [2]) of the same sequence?
A: also causes this inhibitory effect of the response to TGFβ

Q: What about the “induction of expression of Tgfbr1 mRNA after incubating the cells with TGFβ” value (RLE6TN cells [2]) of the same sequence?
A: also causes this inhibitory effect of the response to TGFβ

Q: And the “expression of IL-6 mRNA” value (HaCaT cells [3])?
A: decreased the expression of IL-6 mRNA

Q: What about the “expression of IL-6 mRNA” value (RLE6TN cells [4]) of the same sequence?
A: decreased the expression of IL-6 mRNA

Q: What about the “levels of yH2AX” value [5, 10] of the same sequence?
A: This decrease is greater than that caused by the expression of the GSE4 peptide

Q: And the “levels of yH2AX” value [5, 11]?
A: This decrease is greater than that caused by the expression of the GSE4 peptide

Q: What about the “expression of Terc” value (HaCaT cells [6]) of the same sequence?
A: caused an increase

Q: What about the “expression of TERT” value (HaCaT cells [6]) of the same sequence?
A: caused an increase

Q: What about the “expression of Tert mRNA” value (RLE6TN cells [7]) of the same sequence?
A: an increase was also observed

Q: And the “expression of Terc” value (RLE6TN cells [7])?
A: significant increase

Q: What about the “induction of expression of TGFBR2 mRNA after incubating the cells with TGFβ” value (HaCaT cells [8]) of the same sequence?
A: also causes this inhibitory effect of the response to TGFβ

Q: What about the “induction of expression of MCP1 mRNA after incubating the cells with TGFβ” value (HaCaT cells [8]) of the same sequence?
A: also causes this inhibitory effect of the response to TGFβ
